Activity data for four compounds are collected here from ChEMBL document CHEMBL1158202, “Plakortides, novel cyclic peroxides from the sponge Plakortis halichondrioides: activators of cardiac SR-CA(2+)-pumping ATPase” (J Nat Prod, 1996).

Active and inactive are the calls of the source. No cut-off for these calls is given here.

For the experiment, the species on record is Canis lupus familiaris. Description: Induction of Ca2+ uptake in sarcoplasmic reticular-vesicle isolated from dog cardiac ventricle at 10 to 100 uM by fluorimetric method. In kind it is functional, tissue-based.
With `CC/C=C/C(CC)C[C@@]1(C)C[C@@H](CC)[C@H](CC(=O)OC)OO1` (some centres undefined), the result was Active. The entry for `CC/C=C/C(CC)C/C(C)=C/[C@]1(CC)C[C@H](CC)[C@H](CC(=O)OC)OO1` (some centres undefined) is “Active”; for `CC/C=C/C(CC)CCC[C@]1(CC)C[C@H](CC)[C@H](CC(=O)OC)OO1` (some centres undefined) it is “Active”.

Take `CC/C=C/C(CC)CCC[C@@]1(CC)C[C@H](CC)[C@H](CC(=O)OC)OO1` (some centres undefined): the outcome was Active.
